Data on one compound can be found in patent US10799484B2, “Compositions and methods for treating synucleinopathies” (priority 2017, dated 2020).

Data set [1] concerns humans. As to conditions: for MTD-1 (Pramipexole alone): Period 1. The method, then: The ability of the 5HT3-antagonists to prevent the gastro-intestinal (GI) adverse effects (AEs) of pramipexole in humans was tested.
A Phase I study was conducted in subjects receiving a single oral dose of pramipexole dihydrochloride monohydrate (“pramipexole”) with or without a single oral dose of ondansetron hydrochloride dihydrate (“ondansetron”). The study was single center, single-blind study.
Following enrollment in the study, participants received single increasing oral doses of pramipexole given once daily in the morning (Period 1 of the study). The starting dose of pramipexole was 0.5 mg and the dose was increased daily by 0.5 mg increments. Once a subject had reached his/her first intolerable dose (FID-1), upward dose escalation was discontinued.
When a subject reached FID-1 on pramipexole alone, the subject was washed out for at least 5 days, and then entered Period 2 of the study during which the subject received single daily oral doses of pramipexole starting at 0.5 mg and titrated upward by 0.5 mg increments, together with oral ondansetron hydrochloride dihydrate (10 mg, equivalent to 8 mg ondansetron base) until subjects again reached an intolerable dose defined as above. The FID on oral pramipexole plus oral ondansetron was referred to as FID-2.
If a subject reached FID-2 during Period 2 at the same or lower dose than FID-1, and providing the investigator judged there were no safety issues and the subject was consenting, the subject received the same dose of pramipexole as the FID-2 dose together with a higher dose of oral ondansetron hydrochloride dihydrate (20 mg, equivalent to 16 mg ondansetron base) on the next day and the protocol specified that said subject should continue with the remainder of the dose titration with the higher dose of oral ondansetron hydrochloride dihydrate (20 mg, equivalent to 16 mg ondansetron base) until they reach the intolerable dose (FID2+). All other provisions of the protocol remained unchanged. Assessments were the same as those planned for the dose escalation day.
On each study day, subjects were followed up for up to 8 hours following drug administration for AEs, vital signs, ECGs. In addition, a laboratory panel was taken at screening and at the end of the study.

The target of data set [2] is synuclein oligomer formation (Homo sapiens, UniProt P37840). As to conditions: in vitro; cited from earlier work.
In data set [3] the test system is PD patients. The following applies: doses approved for motor symptoms of PD; 535 PD patients; cited from earlier work.
For data set [4], the target named is human wild-type alpha-synuclein (Homo sapiens, UniProt P37840). The following applies: in vitro; by H2O2 plus cytochrome c; cited from earlier work.
Data set [5] deals with patients. The following applies: 5 mg/day, cited from earlier work.
The test system of data set [6] is dopaminergic neurons in a mouse PD model. The following applies: cited from earlier work.
Data set [7] relates to human neuroblastoma SH-SY5Y cells. As to conditions: cited from earlier work.

Like-named read-outs stand apart in the source and are kept apart here.

Take `CCCN[C@H]1CCc2nc(N)sc2C1` [Pramipexole, (S)-6-propylamino-4,5,6,7-tetrahydro-1,3-benzothiazole-2-amine]: the dose limiting toxicity entry in data set [1] (in vivo) is on record as “gastro-intestinal adverse events”. Besides, the “MTD-1 (Pramipexole alone)” value in data set [1] (subject 1001) is given as 2.0 mg; in data set [1] (subject 1005), 1.5 mg; in data set [1] (subject 1006, cell wraps: NA (not tolerated at 0.5 mg), the starting dose), “NA (not tolerated at”; in data set [1] (subject 1007), 4.0 mg; in data set [1] (subject 1008) it was 1.0 mg. Besides, in data set [2], the synuclein oligomer formation result is given as “diminishes”. In addition, the “neuroprotective (disease modifying) activity” value in data set [3] is “failed to evidence”. Also, in data set [4], the “oligomerization of human wild-type alpha-synuclein” value is “decreases”. Also, the patients with nausea in data set [5] is given as 76%. Further, the patients with vomiting in data set [5] is reported as 39%. The “patients not able to complete the study” value in data set [5] (presumably because of intolerable GI adverse events) is reported as 36%. In addition, the “toxic effects of rotenone on dopaminergic neurons” value in data set [6] was “inhibits”. Besides, in data set [6] (rotenone), the immunoreactivity for alpha-synuclein result was “reducing”. For the same compound, the aggregation of alpha-synuclein result in data set [7] is on record as “inhibit”.
